Results as given in patent publication EP4755384A1, “PHARMACEUTICAL COMPOSITION CONTAINING ANDROGEN RECEPTOR INHIBITOR/ANTAGONIST, METHOD AND USE” (Suzhou Kintor Pharmaceuticals, Inc., priority 2023, dated 2025).

Columns and labels:
mice [1] = experiment: In-vivo efficacy experiment 1: hair scoring in depilated mice given DHT; parameters: key: 0 = no skin darkening, 5 = complete hair growth
Experimental: (§1) 100 mice were deeply anesthetized. First, the hair on the back of the mice was shaved off with an animal hair clipper. Then, depilatory cream (Veet, https://item.jd.com/6291245.html) was evenly applied to the skin surface of the mice. After leaving it for 7-10 minutes, the remaining hair was gently scraped off against the hair growth direction with a depilatory spatula. Finally, the residual depilatory cream on the skin surface was thoroughly washed off with a wet wipe to avoid skin burns in the mice.
(§2) The main observation indicators of this experiment are shown in FIG. 12 (literature on hair scoring: Biomolecules & Therapeutics, 17(3), 241-248 (2009)), which is described as follows: (Score 0: No darkening of skin colour observed in any areas; Score 1: Darkening of skin area from greyish to black; Score 2: Visible short hairs; Score 3: Sparse hairs; Score 4: Dense hairs; Score 5: Complete hair growth). After depilation, the mice were photographed and scored three times a week until the end of the experiment.
as §1, with “cream” for “cream (Veet, https://item.jd.com/6291245.html)”
DHT and test substances (compound of formula I and minoxidil) were administered starting on the day following depilation, which was recorded as Day 1 (the day of depilation was recorded as Day 0). 64 mice in good condition were randomly selected and assigned to each group. Table 1 Experimental grouping
(§3) According to the grouping in Table 1, and the corresponding administration dose, test substance concentration and administration volume, […] above experimental design and methods. For groups G7 and G8, which received a combined administration of the compound of formula I and minoxidil, one drug was administered first followed by the other, with the administration interval between the two drugs not exceeding 1 minute.
(§4) Starting from the first day of administration, body weight was weighed and recorded twice a week, and hair regrowth (anagen) scoring and photography were performed […], until the end of the experiment. Scoring was conducted according to the criteria described in the experimental design.

mice [2] = experiment: In-vivo efficacy experiment 2: hair scoring in depilated mice given DHT; parameters: key: 0 = no skin darkening, 5 = complete hair growth
Experimental: as §1, with “120” for “100”
DHT and test substances (compound of formula I and minoxidil) were administered starting on the day following depilation, which was recorded as Day 1 (the day of depilation was recorded as Day 0). 86 mice in good condition were randomly selected and assigned to each group.
as §2, with “experiment. Table 4 Experimental grouping” for “experiment.”
as §3, with “4,” for “1,”, “groups G6,” for “groups”
as §4

[3] = Day 11, compound of formula I 0.5% (5 mg/mL) 150 µL topical QD, DHT 30 mg/kg subcutaneous QD
[4] = Day 21, compound of formula I 0.5% (5 mg/mL) 150 µL topical QD, DHT 30 mg/kg subcutaneous QD
[5] = Day 11, DHT model group: DHT 30 mg/kg subcutaneous injection QD + vehicle topical
[6] = Day 21, DHT model group: DHT 30 mg/kg subcutaneous injection QD + vehicle topical
[7] = Day 11, minoxidil 5% (50 mg/mL) 150 µL topical QD, DHT 30 mg/kg subcutaneous QD
[8] = Day 21, minoxidil 5% (50 mg/mL) 150 µL topical QD, DHT 30 mg/kg subcutaneous QD

COc1c(C#N)ccc(N2C(=O)C(C)(C)N(c3ccc(C)nc3)C2=S)c1F [compound of formula I, 4-(4,4-dimethyl-3-(6-methylpyridin-3-yl)-5-oxo-2-thioxoimidazolidin-1-yl)-3-fluoro-2-methoxybenzonitrile]
Hair scoring in mice, Score (mice [1]; Day 7, compound of formula I 0.5% (5 mg/mL) 150 µL topical QD, DHT 30 mg/kg subcutaneous QD): 0.00
Hair scoring in mice, Score (mice [1]; Day 7, compound of formula I 1.0% (10 mg/mL) 150 µL topical QD, DHT 30 mg/kg subcutaneous QD): 0.00
Hair scoring in mice, Score (mice [1]; Day 9, compound of formula I 0.5% (5 mg/mL) 150 µL topical QD, DHT 30 mg/kg subcutaneous QD): 0.13
Hair scoring in mice, Score (mice [1]; Day 9, compound of formula I 1.0% (10 mg/mL) 150 µL topical QD, DHT 30 mg/kg subcutaneous QD): 0.13
Hair scoring in mice, Score (mice [1]; [3]): 0.38
Hair scoring in mice, Score (mice [1]; Day 11, compound of formula I 1.0% (10 mg/mL) 150 µL topical QD, DHT 30 mg/kg subcutaneous QD): 0.13
Hair scoring in mice, Score (mice [1]; Day 14, compound of formula I 0.5% (5 mg/mL) 150 µL topical QD, DHT 30 mg/kg subcutaneous QD): 0.88
Hair scoring in mice, Score (mice [1]; Day 14, compound of formula I 1.0% (10 mg/mL) 150 µL topical QD, DHT 30 mg/kg subcutaneous QD): 0.38
Hair scoring in mice, Score (mice [1]; Day 16, compound of formula I 0.5% (5 mg/mL) 150 µL topical QD, DHT 30 mg/kg subcutaneous QD): 1.13
Hair scoring in mice, Score (mice [1]; Day 16, compound of formula I 1.0% (10 mg/mL) 150 µL topical QD, DHT 30 mg/kg subcutaneous QD): 1.00
Hair scoring in mice, Score (mice [1]; Day 18, compound of formula I 0.5% (5 mg/mL) 150 µL topical QD, DHT 30 mg/kg subcutaneous QD): 1.75
Hair scoring in mice, Score (mice [1]; Day 18, compound of formula I 1.0% (10 mg/mL) 150 µL topical QD, DHT 30 mg/kg subcutaneous QD): 1.38
Hair scoring in mice, Score (mice [1]; [4]): 2.25
Hair scoring in mice, Score (mice [1]; Day 21, compound of formula I 1.0% (10 mg/mL) 150 µL topical QD, DHT 30 mg/kg subcutaneous QD): 1.88
Hair scoring in mice, Score (mice [1]; Day 23, compound of formula I 0.5% (5 mg/mL) 150 µL topical QD, DHT 30 mg/kg subcutaneous QD): 2.50
Hair scoring in mice, Score (mice [1]; Day 23, compound of formula I 1.0% (10 mg/mL) 150 µL topical QD, DHT 30 mg/kg subcutaneous QD): 2.38
Hair scoring in mice (mice [2]; Day 8, compound of formula I 0.25% (2.5 mg/mL) 150 µL topical QD, DHT 30 mg/kg subcutaneous QD): 0.00
Hair scoring in mice (mice [2]; Day 8, compound of formula I 0.5% (5 mg/mL) 150 µL topical QD, DHT 30 mg/kg subcutaneous QD): 0.00
Hair scoring in mice (mice [2]; Day 11, compound of formula I 0.25% (2.5 mg/mL) 150 µL topical QD, DHT 30 mg/kg subcutaneous QD): 0.00
Hair scoring in mice (mice [2]; [3]): 0.00
Hair scoring in mice (mice [2]; Day 15, compound of formula I 0.25% (2.5 mg/mL) 150 µL topical QD, DHT 30 mg/kg subcutaneous QD): 0.60
Hair scoring in mice (mice [2]; Day 15, compound of formula I 0.5% (5 mg/mL) 150 µL topical QD, DHT 30 mg/kg subcutaneous QD): 0.90
Hair scoring in mice (mice [2]; Day 17, compound of formula I 0.25% (2.5 mg/mL) 150 µL topical QD, DHT 30 mg/kg subcutaneous QD): 1.00
Hair scoring in mice (mice [2]; Day 17, compound of formula I 0.5% (5 mg/mL) 150 µL topical QD, DHT 30 mg/kg subcutaneous QD): 1.40
Hair scoring in mice (mice [2]; Day 19, compound of formula I 0.25% (2.5 mg/mL) 150 µL topical QD, DHT 30 mg/kg subcutaneous QD): 1.40
Hair scoring in mice (mice [2]; Day 19, compound of formula I 0.5% (5 mg/mL) 150 µL topical QD, DHT 30 mg/kg subcutaneous QD): 1.70
Hair scoring in mice (mice [2]; Day 21, compound of formula I 0.25% (2.5 mg/mL) 150 µL topical QD, DHT 30 mg/kg subcutaneous QD): 1.80
Hair scoring in mice (mice [2]; [4]): 2.20

C[C@]12CCC(=O)C[C@@H]1CC[C@@H]1[C@@H]2CC[C@]2(C)[C@@H](O)CC[C@@H]12 [DHT, Dihydrotestosterone]
Hair scoring in mice, Score (mice [1]; Day 7, DHT model group: DHT 30 mg/kg subcutaneous injection QD + vehicle topical): 0.00
Hair scoring in mice, Score (mice [1]; Day 9, DHT model group: DHT 30 mg/kg subcutaneous injection QD + vehicle topical): 0.00
Hair scoring in mice, Score (mice [1]; [5]): 0.13
Hair scoring in mice, Score (mice [1]; Day 14, DHT model group: DHT 30 mg/kg subcutaneous injection QD + vehicle topical): 0.38
Hair scoring in mice, Score (mice [1]; Day 16, DHT model group: DHT 30 mg/kg subcutaneous injection QD + vehicle topical): 0.63
Hair scoring in mice, Score (mice [1]; Day 18, DHT model group: DHT 30 mg/kg subcutaneous injection QD + vehicle topical): 1.25
Hair scoring in mice, Score (mice [1]; [6]): 1.75
Hair scoring in mice, Score (mice [1]; Day 23, DHT model group: DHT 30 mg/kg subcutaneous injection QD + vehicle topical): 2.13
Hair scoring in mice (mice [2]; Day 8, DHT model group: DHT 30 mg/kg subcutaneous injection QD + vehicle topical): 0.00
Hair scoring in mice (mice [2]; [5]): 0.00
Hair scoring in mice (mice [2]; Day 15, DHT model group: DHT 30 mg/kg subcutaneous injection QD + vehicle topical): 0.40
Hair scoring in mice (mice [2]; Day 17, DHT model group: DHT 30 mg/kg subcutaneous injection QD + vehicle topical): 0.50
Hair scoring in mice (mice [2]; Day 19, DHT model group: DHT 30 mg/kg subcutaneous injection QD + vehicle topical): 0.90
Hair scoring in mice (mice [2]; [6]): 1.10

Nc1cc(N2CCCCC2)nc(N)[n+]1[O-] [minoxidil, Minoxidil]
Hair scoring in mice, Score (mice [1]; Day 7, minoxidil 2% (20 mg/mL) 150 µL topical QD, DHT 30 mg/kg subcutaneous QD): 0.00
Hair scoring in mice, Score (mice [1]; Day 7, minoxidil 5% (50 mg/mL) 150 µL topical QD, DHT 30 mg/kg subcutaneous QD): 0.13
Hair scoring in mice, Score (mice [1]; Day 9, minoxidil 2% (20 mg/mL) 150 µL topical QD, DHT 30 mg/kg subcutaneous QD): 0.29
Hair scoring in mice, Score (mice [1]; Day 9, minoxidil 5% (50 mg/mL) 150 µL topical QD, DHT 30 mg/kg subcutaneous QD): 0.25
Hair scoring in mice, Score (mice [1]; Day 11, minoxidil 2% (20 mg/mL) 150 µL topical QD, DHT 30 mg/kg subcutaneous QD): 0.57
Hair scoring in mice, Score (mice [1]; [7]): 0.38
Hair scoring in mice, Score (mice [1]; Day 14, minoxidil 2% (20 mg/mL) 150 µL topical QD, DHT 30 mg/kg subcutaneous QD): 0.86
Hair scoring in mice, Score (mice [1]; Day 14, minoxidil 5% (50 mg/mL) 150 µL topical QD, DHT 30 mg/kg subcutaneous QD): 1.00
Hair scoring in mice, Score (mice [1]; Day 16, minoxidil 2% (20 mg/mL) 150 µL topical QD, DHT 30 mg/kg subcutaneous QD): 1.14
Hair scoring in mice, Score (mice [1]; Day 16, minoxidil 5% (50 mg/mL) 150 µL topical QD, DHT 30 mg/kg subcutaneous QD): 1.75
Hair scoring in mice, Score (mice [1]; Day 18, minoxidil 2% (20 mg/mL) 150 µL topical QD, DHT 30 mg/kg subcutaneous QD): 1.86
Hair scoring in mice, Score (mice [1]; Day 18, minoxidil 5% (50 mg/mL) 150 µL topical QD, DHT 30 mg/kg subcutaneous QD): 2.63
Hair scoring in mice, Score (mice [1]; Day 21, minoxidil 2% (20 mg/mL) 150 µL topical QD, DHT 30 mg/kg subcutaneous QD): 2.29
Hair scoring in mice, Score (mice [1]; [8]): 3.13
Hair scoring in mice, Score (mice [1]; Day 23, minoxidil 2% (20 mg/mL) 150 µL topical QD, DHT 30 mg/kg subcutaneous QD): 2.71
Hair scoring in mice, Score (mice [1]; Day 23, minoxidil 5% (50 mg/mL) 150 µL topical QD, DHT 30 mg/kg subcutaneous QD): 3.50
Hair scoring in mice (mice [2]; Day 8, minoxidil 5% (50 mg/mL) 150 µL topical QD, DHT 30 mg/kg subcutaneous QD): 0.00
Hair scoring in mice (mice [2]; [7]): 0.25
Hair scoring in mice (mice [2]; Day 15, minoxidil 5% (50 mg/mL) 150 µL topical QD, DHT 30 mg/kg subcutaneous QD): 1.25
Hair scoring in mice (mice [2]; Day 17, minoxidil 5% (50 mg/mL) 150 µL topical QD, DHT 30 mg/kg subcutaneous QD): 1.88
Hair scoring in mice (mice [2]; Day 19, minoxidil 5% (50 mg/mL) 150 µL topical QD, DHT 30 mg/kg subcutaneous QD): 2.63
Hair scoring in mice (mice [2]; [8]): 2.75
